From PubChem BioAssay (NCI)
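Five concentrations, 48 hours, 96-well plates. The concentration for 50% growth inhibition is given as GI50. At the TGI there is no net growth.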

Experiments:
Assay in all cases: NCI anticancer screen, dose series, 48 h
786-0 renal = test system: 786-0 renal
MDA-MB-435 = test system: MDA-MB-435
TK-10 renal = test system: TK-10 renal
HCT-116 colon = test system: HCT-116 colon
HT29 colon = test system: HT29 colon
SF-539 CNS = test system: SF-539 CNS
PC-3 prostate = test system: PC-3 prostate
A549 NSCLC = test system: A549 NSCLC
SK-MEL-28 melanoma = test system: SK-MEL-28 melanoma
RXF 393 renal = test system: RXF 393 renal
DU-145 prostate = test system: DU-145 prostate
HOP-92 NSCLC = test system: HOP-92 NSCLC
SNB-19 CNS = test system: SNB-19 CNS
UACC-257 melanoma = test system: UACC-257 melanoma
MDA-MB-231 breast = test system: MDA-MB-231 breast
EKVX NSCLC = test system: EKVX NSCLC
HOP-62 NSCLC = test system: HOP-62 NSCLC
SN12C renal = test system: SN12C renal
BT-549 breast = test system: BT-549 breast
NCI-H226 lung = test system: NCI-H226 lung
HS 578T breast = test system: HS 578T breast
OVCAR-3 ovarian = test system: OVCAR-3 ovarian
SF-268 CNS = test system: SF-268 CNS
OVCAR-4 ovarian = test system: OVCAR-4 ovarian
NCI-H23 lung = test system: NCI-H23 lung
K-562 leukemia = test system: K-562 leukemia
UO-31 renal = test system: UO-31 renal
COLO 205 colon = test system: COLO 205 colon
ACHN renal = test system: ACHN renal
A498 renal = test system: A498 renal
MOLT-4 leukemia = test system: MOLT-4 leukemia
SK-MEL-2 melanoma = test system: SK-MEL-2 melanoma
SF-295 CNS = test system: SF-295 CNS
SK-OV-3 ovarian = test system: SK-OV-3 ovarian
SK-MEL-5 melanoma = test system: SK-MEL-5 melanoma
SNB-75 CNS = test system: SNB-75 CNS
HCC-2998 colon = test system: HCC-2998 colon
NCI/ADR-RES ovarian = test system: NCI/ADR-RES ovarian
NCI-H460 lung = test system: NCI-H460 lung
M14 melanoma = test system: M14 melanoma
CAKI-1 renal = test system: CAKI-1 renal
T-47D breast = test system: T-47D breast
OVCAR-5 ovarian = test system: OVCAR-5 ovarian
CCRF-CEM leukemia = test system: CCRF-CEM leukemia
UACC-62 melanoma = test system: UACC-62 melanoma
HCT-15 colon = test system: HCT-15 colon
MCF7 breast = test system: MCF7 breast
HL-60(TB) leukemia = test system: HL-60(TB) leukemia
SW-620 colon = test system: SW-620 colon
KM12 colon = test system: KM12 colon
RPMI-8226 leukemia = test system: RPMI-8226 leukemia
OVCAR-8 ovarian = test system: OVCAR-8 ovarian
U251 CNS = test system: U251 CNS
NCI-H522 lung = test system: NCI-H522 lung

c1ccc2c3ccn4cc5c(cc4c-3nc2c1)CCCC5
GI50 (786-0 renal): 3.46 µM
TGI (786-0 renal): 13.5 µM
GI50 (MDA-MB-435): 1560 nM
TGI (MDA-MB-435): 4.19 µM
GI50 (TK-10 renal): 12.8 µM
TGI (TK-10 renal): 26 µM
GI50 (HCT-116 colon): 2720 nM
TGI (HCT-116 colon): 8.94 µM
GI50 (HT29 colon): 2550 nM
TGI (HT29 colon): 13 µM
GI50 (SF-539 CNS): 3.4 µM
TGI (SF-539 CNS): 17.1 µM
TGI (PC-3 prostate): 12.1 µM
GI50 (A549 NSCLC): 9.19 µM
TGI (A549 NSCLC): 32.6 µM
GI50 (SK-MEL-28 melanoma): 2380 nM
TGI (SK-MEL-28 melanoma): 11.7 µM
GI50 (RXF 393 renal): 5.62 µM
TGI (RXF 393 renal): 27 µM
GI50 (DU-145 prostate): 2310 nM
TGI (DU-145 prostate): 10.5 µM
GI50 (HOP-92 NSCLC): 5.04 µM
TGI (HOP-92 NSCLC): 48.7 µM
GI50 (SNB-19 CNS): 3.49 µM
TGI (SNB-19 CNS): 13.8 µM
GI50 (UACC-257 melanoma): 5.42 µM
TGI (UACC-257 melanoma): 38.2 µM
GI50 (MDA-MB-231 breast): 4.47 µM
TGI (MDA-MB-231 breast): 20.8 µM
GI50 (EKVX NSCLC): 3.88 µM
TGI (EKVX NSCLC): 19.5 µM
GI50 (HOP-62 NSCLC): 3.5 µM
TGI (HOP-62 NSCLC): 13.1 µM
GI50 (SN12C renal): 3.57 µM
TGI (SN12C renal): 16.2 µM
GI50 (BT-549 breast): 11.3 µM
TGI (BT-549 breast): 59.6 µM
GI50 (NCI-H226 lung): 3.3 µM
TGI (NCI-H226 lung): 10.2 µM
GI50 (HS 578T breast): 3.01 µM
TGI (HS 578T breast): 21.5 µM
GI50 (OVCAR-3 ovarian): 3.31 µM
TGI (OVCAR-3 ovarian): 8.84 µM
TGI (SF-268 CNS): 14.4 µM
GI50 (OVCAR-4 ovarian): 2850 nM
TGI (OVCAR-4 ovarian): 11 µM
GI50 (NCI-H23 lung): 3.13 µM
TGI (NCI-H23 lung): 14.7 µM
GI50 (K-562 leukemia): 1950 nM
TGI (K-562 leukemia): 12.6 µM
GI50 (UO-31 renal): 14.6 µM
TGI (UO-31 renal): 29.8 µM
GI50 (COLO 205 colon): 2370 nM
TGI (COLO 205 colon): 6.16 µM
GI50 (ACHN renal): 4.75 µM
TGI (ACHN renal): 17.5 µM
GI50 (A498 renal): 11.6 µM
TGI (A498 renal): 24.1 µM
GI50 (MOLT-4 leukemia): 2450 nM
TGI (MOLT-4 leukemia): 12.5 µM
GI50 (SK-MEL-2 melanoma): 3.05 µM
TGI (SK-MEL-2 melanoma): 10.2 µM
GI50 (SF-295 CNS): 2370 nM
TGI (SF-295 CNS): 10.5 µM
GI50 (SK-OV-3 ovarian): 3.41 µM
TGI (SK-OV-3 ovarian): 10.5 µM
GI50 (SK-MEL-5 melanoma): 2420 nM
TGI (SK-MEL-5 melanoma): 10.3 µM
GI50 (SNB-75 CNS): 3.12 µM
TGI (SNB-75 CNS): 12.3 µM
GI50 (HCC-2998 colon): 4.3 µM
TGI (HCC-2998 colon): 15 µM
GI50 (NCI/ADR-RES ovarian): 55 µM
TGI (NCI/ADR-RES ovarian): > 100 µM
GI50 (NCI-H460 lung): 1690 nM
TGI (NCI-H460 lung): 3.85 µM
TGI (M14 melanoma): 6.41 µM
GI50 (CAKI-1 renal): 34.9 µM
TGI (CAKI-1 renal): > 100 µM
GI50 (T-47D breast): 3.27 µM
TGI (T-47D breast): 15 µM
GI50 (OVCAR-5 ovarian): 4.49 µM
TGI (OVCAR-5 ovarian): 19.3 µM
GI50 (CCRF-CEM leukemia): 3.52 µM
TGI (CCRF-CEM leukemia): > 100 µM
GI50 (UACC-62 melanoma): 3.25 µM
TGI (UACC-62 melanoma): 14.4 µM
GI50 (HCT-15 colon): 24.1 µM
TGI (HCT-15 colon): > 100 µM
GI50 (MCF7 breast): 2500 nM
TGI (MCF7 breast): 11 µM
GI50 (HL-60(TB) leukemia): 810 nM
TGI (HL-60(TB) leukemia): 3.81 µM
TGI (SW-620 colon): 9.85 µM
TGI (KM12 colon): 8.59 µM
GI50 (RPMI-8226 leukemia): 5.11 µM
TGI (RPMI-8226 leukemia): > 100 µM
GI50 (OVCAR-8 ovarian): 3.62 µM
TGI (OVCAR-8 ovarian): 51.2 µM
GI50 (U251 CNS): 3.22 µM
TGI (U251 CNS): 13.6 µM
TGI (NCI-H522 lung): 5.75 µM
